Laboratory results as given in paper PMC5218480 (PLoS ONE, 2017).

Tested on: MV-4-11 cells
Experiment: Gene expression microarray analysis (Affymetrix PrimeView) and GSEA
Type: cell-based, human
Design: RFU PODN (11730768_x_at) / Fold change /veh PODN (11730768_x_at) / RFU LINC00158 (11744669_a_at) / Fold change /veh LINC00158 (11744669_a_at) / RFU DUSP10 (11751237_a_at) / Fold change /veh DUSP10 (11751237_a_at) / RFU ID3 (11757404_x_at) / Fold change /veh ID3 (11757404_x_at) / RFU PLEKHG5 (11737974_s_at) / Fold change /veh PLEKHG5 (11737974_s_at) / RFU LRRC4B (11730491_at) / Fold change /veh LRRC4B (11730491_at) / RFU GIMAP4 (11747438_a_at) / Fold change /veh GIMAP4 (11747438_a_at) / RFU KRT8 (11758183_x_at) / Fold change /veh KRT8 (11758183_x_at) / RFU CNN1 (11734310_a_at) / Fold change /veh CNN1 (11734310_a_at) / RFU VPS37D (11726825_at) / Fold change /veh VPS37D (11726825_at) / RFU C10orf10 (11716522_x_at) / Fold change /veh C10orf10 (11716522_x_at) / RFU KIR2DL2 /// KIR2DL4 /// KIR2DL5A /// KIR2DL5B /// KIR2DS1 /// KIR2DS2 /// KIR2DS3 /// KIR2DS4 /// KIR3DL3 /// KIR3DL3 /// KIR3DS1 (11738374_at) / Fold change /veh KIR2DL2 /// KIR2DL4 /// KIR2DL5A /// KIR2DL5B /// KIR2DS1 /// KIR2DS2 /// KIR2DS3 /// KIR2DS4 /// KIR3DL3 /// KIR3DL3 /// KIR3DS1 (11738374_at) / RFU C1QL1 (11718748_at) / Fold change /veh C1QL1 (11718748_at) / RFU TMPRSS4 (11747572_a_at) / Fold change /veh TMPRSS4 (11747572_a_at) / RFU HAMP (11756126_x_at) / Fold change /veh HAMP (11756126_x_at) / RFU RNFT2 (11725882_a_at) / Fold change /veh RNFT2 (11725882_a_at) / RFU NR4A2 (11747474_a_at) / Fold change /veh NR4A2 (11747474_a_at) / RFU ABCC12 (11746883_a_at) / Fold change /veh ABCC12 (11746883_a_at) / RFU TMEM136 (11760407_x_at) / Fold change /veh TMEM136 (11760407_x_at) / RFU CLDN22 /// WWC2 (11732394_at) / Fold change /veh CLDN22 /// WWC2 (11732394_at) / RFU HLA-DPB1 (11760878_x_at) / Fold change /veh HLA-DPB1 (11760878_x_at) / RFU SPINT1 (11716480_a_at) / Fold change /veh SPINT1 (11716480_a_at) / RFU GAP43 (11754022_s_at) / Fold change /veh GAP43 (11754022_s_at) / RFU A4GNT (11735810_at) / Fold change /veh A4GNT (11735810_at) / RFU PRB3 (11715151_x_at) / Fold change /veh PRB3 (11715151_x_at) / RFU TUBB4B (11761932_at) / Fold change /veh TUBB4B (11761932_at) / RFU CAPN14 (11732068_a_at) / Fold change /veh CAPN14 (11732068_a_at) / RFU TMCC2 (11721928_a_at) / Fold change /veh TMCC2 (11721928_a_at) / RFU IRGQ (11745062_a_at) / Fold change /veh IRGQ (11745062_a_at) / RFU FAM174B (11720279_a_at) / Fold change /veh FAM174B (11720279_a_at) / RFU TMPRSS4 (11748680_a_at) / Fold change /veh TMPRSS4 (11748680_a_at) / RFU FAM212B (11763350_a_at) / Fold change /veh FAM212B (11763350_a_at) / RFU PLEKHG5 (11743358_a_at) / Fold change /veh PLEKHG5 (11743358_a_at) / RFU ZSCAN30 (11745921_a_at) / Fold change /veh ZSCAN30 (11745921_a_at) / RFU CMKLR1 (11741424_a_at) / Fold change /veh CMKLR1 (11741424_a_at) / RFU LOC101060620 /// MAPK8IP1 (11723275_at) / Fold change /veh LOC101060620 /// MAPK8IP1 (11723275_at) / RFU SPTSSB (11747773_x_at) / Fold change /veh SPTSSB (11747773_x_at) / RFU PRSS12 (11739890_at) / Fold change /veh PRSS12 (11739890_at) / RFU BIN1 (11741810_x_at) / Fold change /veh BIN1 (11741810_x_at) / RFU WNT11 (11732464_a_at) / Fold change /veh WNT11 (11732464_a_at) / RFU C10orf10 (11716521_a_at) / Fold change /veh C10orf10 (11716521_a_at) / RFU C5orf56 (11738089_at) / Fold change /veh C5orf56 (11738089_at) / RFU CYB561 (11721691_x_at) / Fold change /veh CYB561 (11721691_x_at) / RFU ANKRD19P (11752326_a_at) / Fold change /veh ANKRD19P (11752326_a_at) / RFU OR2T12 /// OR2T33 /// OR2T8 (11738714_s_at) / Fold change /veh OR2T12 /// OR2T33 /// OR2T8 (11738714_s_at) / RFU VCAN (11748164_a_at) / Fold change /veh VCAN (11748164_a_at) / RFU JSRP1 (11732532_at) / Fold change /veh JSRP1 (11732532_at) / RFU KRTAP10-11 (11738290_x_at) / Fold change /veh KRTAP10-11 (11738290_x_at) / RFU MYO3A (11730013_a_at) / Fold change /veh MYO3A (11730013_a_at) / RFU EBF3 (11725865_a_at) / Fold change /veh EBF3 (11725865_a_at) / RFU CAMK2N1 (11719241_x_at) / Fold change /veh CAMK2N1 (11719241_x_at) / RFU C5orf56 (11738088_a_at) / Fold change /veh C5orf56 (11738088_a_at) / RFU OLFML3 (11715873_a_at) / Fold change /veh OLFML3 (11715873_a_at) / RFU LOC100653217 /// NTM (11731650_a_at) / Fold change /veh LOC100653217 /// NTM (11731650_a_at) / RFU MAPK11 (11762145_a_at) / Fold change /veh MAPK11 (11762145_a_at) / RFU FIZ1 (11724087_x_at) / Fold change /veh FIZ1 (11724087_x_at) / RFU OASL (11726364_x_at) / Fold change /veh OASL (11726364_x_at) / RFU SOX15 (11748057_x_at) / Fold change /veh SOX15 (11748057_x_at) / RFU CD79A (11719716_a_at) / Fold change /veh CD79A (11719716_a_at) / RFU HIST1H1D (11736915_at) / Fold change /veh HIST1H1D (11736915_at) / RFU CASKIN2 (11723855_a_at) / Fold change /veh CASKIN2 (11723855_a_at) / RFU LOC730098 (11760151_x_at) / Fold change /veh LOC730098 (11760151_x_at) / RFU OR4N2 (11742367_at) / Fold change /veh OR4N2 (11742367_at) / RFU PRRT2 (11749266_a_at) / Fold change /veh PRRT2 (11749266_a_at) / RFU SNX32 (11753110_a_at) / Fold change /veh SNX32 (11753110_a_at) / RFU CDHR5 (11726645_a_at) / Fold change /veh CDHR5 (11726645_a_at) / RFU RCAN1 (11760418_a_at) / Fold change /veh RCAN1 (11760418_a_at) / RFU FAM167A (11723789_a_at) / Fold change /veh FAM167A (11723789_a_at) / RFU FAM26E (11764081_at) / Fold change /veh FAM26E (11764081_at) / RFU ISYNA1 (11749810_s_at) / Fold change /veh ISYNA1 (11749810_s_at) / RFU ACY1 (11761880_at) / Fold change /veh ACY1 (11761880_at) / RFU 11764098_at / Fold change /veh 11764098_at / RFU SAMD14 (11745864_x_at) / Fold change /veh SAMD14 (11745864_x_at) / RFU NPB (11741838_a_at) / Fold change /veh NPB (11741838_a_at) / RFU TMPRSS6 (11731388_a_at) / Fold change /veh TMPRSS6 (11731388_a_at) / RFU KRTAP10-2 (11738614_at) / Fold change /veh KRTAP10-2 (11738614_at) / RFU ARHGAP8 /// PRR5-ARHGAP8 (11727945_x_at) / Fold change /veh ARHGAP8 /// PRR5-ARHGAP8 (11727945_x_at) / RFU KRTAP5-7 /// NADSYN1 (11734609_at) / Fold change /veh KRTAP5-7 /// NADSYN1 (11734609_at) / RFU RASL12 (11751679_a_at) / Fold change /veh RASL12 (11751679_a_at) / RFU CDKN2B (11736163_a_at) / Fold change /veh CDKN2B (11736163_a_at) / RFU PRF1 (11729649_at) / Fold change /veh PRF1 (11729649_at) / RFU, ZNF638 /// ZNF638-IT1 / Fold change vs veh, ZNF638 /// ZNF638-IT1 / RFU, PANK3 / Fold change vs veh, PANK3 / RFU, SH3YL1 / Fold change vs veh, SH3YL1 / RFU, ZEB2 / Fold change vs veh, ZEB2 / RFU, NRIP1 / Fold change vs veh, NRIP1 / RFU, PTTG1IP / Fold change vs veh, PTTG1IP / RFU, CAPN2 / Fold change vs veh, CAPN2 / RFU, MED14 / Fold change vs veh, MED14 / RFU, SNORA58 / Fold change vs veh, SNORA58 / RFU, C1orf63 / Fold change vs veh, C1orf63 / RFU, LRRFIP1 / Fold change vs veh, LRRFIP1 / RFU, NDUFAF7 / Fold change vs veh, NDUFAF7 / RFU, SLC12A2 / Fold change vs veh, SLC12A2 / RFU, IBTK / Fold change vs veh, IBTK / RFU, ESF1 / Fold change vs veh, ESF1 / Fold change vs veh, TMEM50B / RFU, TAOK1 / Fold change vs veh, TAOK1 / RFU, ACBD3 / Fold change vs veh, ACBD3 / RFU, TMA16 / Fold change vs veh, TMA16 / RFU, RWDD3 / Fold change vs veh, RWDD3 / RFU, BCAT1 / Fold change vs veh, BCAT1 / RFU, EDEM3 / Fold change vs veh, EDEM3 / RFU, TMEM33 / Fold change vs veh, TMEM33 / RFU, WDR75 / Fold change vs veh, WDR75 / RFU, AHCTF1 / Fold change vs veh, AHCTF1 / RFU, TFRC / Fold change vs veh, TFRC / RFU, ZDHHC17 / Fold change vs veh, ZDHHC17 / RFU, NOM1 / Fold change vs veh, NOM1 / RFU, ARL8B / Fold change vs veh, ARL8B / RFU, ZBTB11 / Fold change vs veh, ZBTB11 / RFU, TAMM41 / Fold change vs veh, TAMM41 / RFU, KIAA1704 /// LOC100996395 / Fold change vs veh, KIAA1704 /// LOC100996395 / RFU, ING1 / Fold change vs veh, ING1 / RFU, TRMT61B / Fold change vs veh, TRMT61B / RFU, FUBP3 / Fold change vs veh, FUBP3 / RFU, TP53 / Fold change vs veh, TP53 / RFU, TNKS2 / Fold change vs veh, TNKS2 / RFU, ZFP14 / Fold change vs veh, ZFP14 / RFU, ACTR2 / Fold change vs veh, ACTR2 / RFU, PPP3R1 / Fold change vs veh, PPP3R1 / RFU, PIK3R1 / Fold change vs veh, PIK3R1 / RFU, HNRNPA1 / Fold change vs veh, HNRNPA1 / RFU, RNF170 / Fold change vs veh, RNF170 / RFU, ZNF28 / Fold change vs veh, ZNF28 / RFU, RNGTT / Fold change vs veh, RNGTT / RFU, OGT / Fold change vs veh, OGT / RFU, BRD1 / Fold change vs veh, BRD1 / RFU, MARS / Fold change vs veh, MARS / RFU, ZNF655 / Fold change vs veh, ZNF655 / RFU, FAHD1 / Fold change vs veh, FAHD1 / RFU, BDP1 / Fold change vs veh, BDP1 / RFU, LRRCC1 / Fold change vs veh, LRRCC1 / RFU, ARID1A / Fold change vs veh, ARID1A / RFU, ZNF146 / Fold change vs veh, ZNF146 / RFU, ZNF330 / Fold change vs veh, ZNF330 / RFU, GPN3 / Fold change vs veh, GPN3 / RFU, C9orf123 / Fold change vs veh, C9orf123 / RFU, N4BP2L2 / Fold change vs veh, N4BP2L2 / RFU, ARFIP1 / Fold change vs veh, ARFIP1 / RFU, FAM179B / Fold change vs veh, FAM179B / RFU, BCL10 / Fold change vs veh, BCL10 / RFU, UHRF1BP1L / Fold change vs veh, UHRF1BP1L / RFU, BET1 / Fold change vs veh, BET1 / RFU, CNOT2 / Fold change vs veh, CNOT2 / RFU, ZNF268 / Fold change vs veh, ZNF268 / Fold change vs veh, ZNF507 / RFU, DGCR2 / Fold change vs veh, DGCR2 / RFU, WDSUB1 / Fold change vs veh, WDSUB1 / Fold change vs veh, HSP90B1 /// MIR3652 / RFU, ADSS / Fold change vs veh, ADSS / RFU, GK / Fold change vs veh, GK / RFU, ZNF148 / Fold change vs veh, ZNF148 / RFU, TAF9 / Fold change vs veh, TAF9 / RFU, SLC1A5 / Fold change vs veh, SLC1A5 / RFU, SLMO2 / Fold change vs veh, SLMO2 / RFU, ABCC4 / Fold change vs veh, ABCC4 / RFU, LOC101060439 /// RAP1B / Fold change vs veh, LOC101060439 /// RAP1B / RFU, RFX7 / Fold change vs veh, RFX7 / RFU, GTPBP10 / Fold change vs veh, GTPBP10 / RFU, CNEP1R1 / Fold change vs veh, CNEP1R1 / RFU, BIVM-ERCC5 /// ERCC5 / Fold change vs veh, BIVM-ERCC5 /// ERCC5 / RFU, ILF3 / Fold change vs veh, ILF3 / RFU 11762660_at / Fold change /veh 11762660_at / RFU VCAN (11757783_s_at) / Fold change /veh VCAN (11757783_s_at) / RFU DDX43 (11728927_at) / Fold change /veh DDX43 (11728927_at) / RFU KRT8 (11758188_x_at) / Fold change /veh KRT8 (11758188_x_at) / RFU NKD1 (11759106_at) / Fold change /veh NKD1 (11759106_at) / RFU SRD5A1 (11742802_a_at) / Fold change /veh SRD5A1 (11742802_a_at) / RFU TPSAB1 /// TPSB2 (11721975_s_at) / Fold change /veh TPSAB1 /// TPSB2 (11721975_s_at) / RFU GSTM3 (11746129_a_at) / Fold change /veh GSTM3 (11746129_a_at) / RFU IL23R (11737362_x_at) / Fold change /veh IL23R (11737362_x_at) / RFU TMEM51 (11727254_a_at) / Fold change /veh TMEM51 (11727254_a_at) / RFU PIWIL2 (11732686_x_at) / Fold change /veh PIWIL2 (11732686_x_at) / RFU ORM1 (11744905_x_at) / Fold change /veh ORM1 (11744905_x_at) / RFU CCDC152 (11743942_at) / Fold change /veh CCDC152 (11743942_at) / RFU ECM1 (11717891_a_at) / Fold change /veh ECM1 (11717891_a_at) / RFU IL23R (11748794_a_at) / Fold change /veh IL23R (11748794_a_at) / RFU TNFAIP8L3 (11732012_x_at) / Fold change /veh TNFAIP8L3 (11732012_x_at) / RFU MBOAT4 (11741988_at) / Fold change /veh MBOAT4 (11741988_at) / RFU 11764193_at / Fold change /veh 11764193_at / RFU TMEM53 (11763286_at) / Fold change /veh TMEM53 (11763286_at) / RFU MAGEB2 (11727129_at) / Fold change /veh MAGEB2 (11727129_at) / RFU TMEM200A (11744735_a_at) / Fold change /veh TMEM200A (11744735_a_at) / RFU CCDC152 (11751479_a_at) / Fold change /veh CCDC152 (11751479_a_at) / RFU FAM211A (11726209_a_at) / Fold change /veh FAM211A (11726209_a_at) / RFU RGS16 (11746705_a_at) / Fold change /veh RGS16 (11746705_a_at) / RFU VCAN (11755009_s_at) / Fold change /veh VCAN (11755009_s_at) / RFU RHOB (11743442_s_at) / Fold change /veh RHOB (11743442_s_at) / RFU RGS16 (11720943_a_at) / Fold change /veh RGS16 (11720943_a_at) / RFU RGS16 (11720944_at) / Fold change /veh RGS16 (11720944_at) / RFU, VPS4B / Fold change vs veh, VPS4B / RFU, CREB1 / Fold change vs veh, CREB1 / RFU, DNAJC13 / Fold change vs veh, DNAJC13 / RFU, GNAQ / Fold change vs veh, GNAQ / RFU, CDK5R1 / Fold change vs veh, CDK5R1 / RFU, ZRANB3 / Fold change vs veh, ZRANB3 / RFU, CUL4A / Fold change vs veh, CUL4A / RFU, CCNY / Fold change vs veh, CCNY / RFU, UFL1 / Fold change vs veh, UFL1 / RFU, COG3 / Fold change vs veh, COG3 / RFU, DIAPH2 / Fold change vs veh, DIAPH2 / RFU, SKA2 / Fold change vs veh, SKA2 / RFU, AFF3 / Fold change vs veh, AFF3 / RFU, LMF1 / Fold change vs veh, LMF1 / RFU, IPO11 / Fold change vs veh, IPO11 / RFU, DFFB / Fold change vs veh, DFFB / RFU, FOXP1 / Fold change vs veh, FOXP1 / RFU, CARD8 / Fold change vs veh, CARD8 / RFU, STRN3 / Fold change vs veh, STRN3 / RFU, ADK / Fold change vs veh, ADK / RFU, RASSF2 / Fold change vs veh, RASSF2 / RFU, WIPF1 / Fold change vs veh, WIPF1 / RFU, LARP1B / Fold change vs veh, LARP1B / RFU, RASA1 / Fold change vs veh, RASA1 / RFU, RB1 / Fold change vs veh, RB1 / RFU, PPFIA1 / Fold change vs veh, PPFIA1 / RFU, MAT2A / Fold change vs veh, MAT2A / RFU, CCT5 / Fold change vs veh, CCT5 / RFU, WDR92 / Fold change vs veh, WDR92 / RFU, CUX1 / Fold change vs veh, CUX1 / RFU, TTC7A / Fold change vs veh, TTC7A / RFU, TMEM135 / Fold change vs veh, TMEM135 / RFU, DEPTOR / Fold change vs veh, DEPTOR / RFU, CPM / Fold change vs veh, CPM / RFU, DNAJB6 / Fold change vs veh, DNAJB6 / RFU, CACNA2D3 / Fold change vs veh, CACNA2D3 / RFU, DTX4 / Fold change vs veh, DTX4 / RFU, TFCP2 / Fold change vs veh, TFCP2 / RFU, GMCL1 /// GMCL1P1 / Fold change vs veh, GMCL1 /// GMCL1P1 / RFU, AEBP2 / Fold change vs veh, AEBP2 / RFU, SNHG1 /// SNORD22 /// SNORD25 /// SNORD26 /// SNORD27 /// SNORD28 /// SNORD29 /// SNORD31 / Fold change vs veh, SNHG1 /// SNORD22 /// SNORD25 /// SNORD26 /// SNORD27 /// SNORD28 /// SNORD29 /// SNORD31 / Fold change (Aza/veh), C12orf56 (ProbeSet 11735607_a_at) / Fold change (ACY-1035/veh), C12orf56 (ProbeSet 11735607_a_at) / Fold change (Aza/veh), FGFR1OP (ProbeSet 11751329_s_at) / Fold change (ACY-1035/veh), FGFR1OP (ProbeSet 11751329_s_at) / Fold change (Aza/veh), VPS36 (ProbeSet 11739960_a_at) / Fold change (ACY-1035/veh), VPS36 (ProbeSet 11739960_a_at) / RFU SYPL1 (11715823_x_at) / Fold change /veh SYPL1 (11715823_x_at) / RFU IGFBP7 (11715501_s_at) / Fold change /veh IGFBP7 (11715501_s_at) / RFU REEP3 (11722064_at) / Fold change /veh REEP3 (11722064_at) / RFU IGLL1 (11728026_x_at) / Fold change /veh IGLL1 (11728026_x_at): dose or concentration left out as unconfirmed
Settings: MV-4-11 cells, 48 hours

Nc1ccc(-c2cccs2)cc1NC(=O)c1ccc2c(c1)cc(C1CC1)n2CCN1CCOCC1 [ACY-1035]
RFU VCAN (11757783_s_at): 8.50 RFU
